This is an account of results in patent publication US6800651B2 (Eli Lilly and Company, priority 2000, dated 2004).

In general, Ki refers to the dissociation constant of the complex between target and ligand, obtained from inhibition or displacement. Higher therefore signals lower affinity.

The test system of test [1] is Harlan Sprague-Dawley rats. Briefly: Animal model of dural protein extravasation (trigeminal ganglion stimulation). In kind it is in vivo. The note with it: rat, ratio stimulated/unstimulated side of dura. Here is the method:
Harlan Sprague-Dawley rats (250-350 g) were anesthetized with sodium pentobarbital intraperitoneally (65 mg/kg) and placed in a stereotaxic frame (David Kopf Instruments) with the incisor bar set at −3.5 mm. Following a midline sagital scalp incision, two pairs of bilateral holes were drilled through the skull (6 mm posterially, 2.0 and 4.0 mm laterally, all coordinates referenced to bregma). Pairs of stainless steel stimulating electrodes, insulated except at the tips (Rhodes Medical Systems, Inc.), were lowered through the holes in both hemispheres to a depth of 9 mm. The femoral vein was exposed and a dose of the test compound was injected intravenously (i.v.) at a dosing volume of 1 ml/kg or, in the alternative, test compound was administered orally (p.o.) via gavage at a volume of 2 ml/kg. Approximately 8 minutes post i.v. injection, a 50 mg/kg dose of Evans Blue, a fluorescent dye, was also injected intravenously. The Evans Blue complexed with proteins in the blood and functioned as a marker for protein extravasation. […] Fifteen minutes following stimulation, the animals were killed and exsanguinated with 40 mL of saline. The top of the skull was removed to facilitate the collection of the dural membranes. The membrane samples were removed from both hemispheres, rinsed with water, and spread flat on microscopic slides. […] A fluorescence microscope (Zeiss) equipped with a grating monochromator and a spectrophotometer was used to quantify the amount of Evans Blue dye in each sample. An excitation wavelength of approximately 535 nm was utilized and the emission intensity at 600 nm was determined. The microscope was equipped with a motorized stage and also interfaced with a personal computer. This facilitated the computer-controlled movement of the stage with fluorescence measurements at 25 points ([…]) on each dural sample. The mean and standard deviation of the measurements were determined by the computer. The extravasation induced by the electrical stimulation of the trigeminal ganglion was an ipsilateral effect (i.e. occurs only on the side of the dura in which the trigeminal ganglion was stimulated). This allows the other (unstimulated) half of the dura to be used as a control. The ratio of the amount of extravasation in the dura from the stimulated side, over the amount of extravasation in the unstimulated side, was calculated.

Test [2] concerns the target T1, mGlu2 receptor (Homo sapiens, UniProt Q14416). Briefly: Potentiation of glutamate-induced increase in intracellular calcium with a mGluR2 expressing cell line (FLIPR). In kind it is cell-based. On the set-up: expressed in transfected cells; host or cells: RGT cells (co-transfected with GLAST), stably transfected with Galpha15. The note with it: read-out: % Maximal Response (mean ± SD, n=2). Here is the method:
Potentiation of Glutamate-Induced Increase in Intracellular Calcium with a mGluR2 Expressing Cell Line.
Cell lines expressing human mGlu2 receptors were derived as previously described (Desai, Burnett, Mayne, Schoepp, Mol. Pharmacol. 48, 648-657, 1995) and cultured in DMEM with 5% dialyzed fetal bovine serum, 1 mM glutamine, 1 mM sodium pyruvate, 50 μg/ml Geneticin G418, and 0.2 mg/ml hygromycin B. Confluent cultures were passaged weekly. […] The RGT cell line expressing the mGluR2 receptors was stably transfected with the promiscuous G-protein, Galpha15 to change the signaling pathway to the mGlu2 receptor to one that could be easily measured through release of intracellular calcium. Thus, intracellular calcium levels were monitored before and after the addition of drugs on a Fluorometric Imaging Plate Reader (i.e. FLIPR, Molecular Devices). The following buffer was used throughout as an assay buffer: 10 mM KCl, 138 mM NaCl, 5 mM Ca Cl2, 1 mM MgCl2, 4 mM NaH2PO4, 10 mM Glucose, 10 mM HEPES, pH 7.4. Cells that had been plated 48 h prior at a density of 30-40,000 cells per well in a 96-well plate were loaded with a calcium-sensitive dye for 90 min at 25° C. Fluo-3 (2 mM in DMSO, Molecular Probes) were mixed with a equal volume of 10% pluronic acid in DMSO, and diluted to 8 μM into the buffer described above containing 10% fetal bovine serum to make the loading buffer. Following loading of the cells, the loading buffer was removed and replaced with assay buffer prior to drug addition and monitoring on the FLIPR.
(In general: A change in cytosolic calcium serves as a functional read-out for many receptors and channels.)

Test [3] has as its target T1, mGlu2 receptor. In words: [3H]-2S-2-Amino-2-(1S,2S-2-carboxycyclopropan-1-yl)-3-(xanth-9-yl) propionic acid receptor binding (displacement), membranes of mGlu2 receptor expressing RGT cells. On the set-up: expressed in transfected cells; host or cells: RGT cells (co-transfected with the rat glutamate/aspartate transporter GLAST); washed membranes. To be noted: displacement of 1 nM [3H]-2S-2-amino-2-(1S,2S-2-carboxycyclopropan-1-yl)-3-(xanth-9-yl)propionic acid; homogenates of mGlu2 receptor expressing cell line.
Method: Membranes from mGlu2 receptor expressing RGT cells were prepared by harvesting adherent cells from confluent T-150 flasks with a cell scraper. Cells and media were then placed in 50 ml conical tubes and centrifuged at 4° C. at 1000 g for 5 minutes. The supernatant was removed and the pellet was frozen at −10° C. until use. Washed cell membranes were prepared by adding 20 ml of 10 mM potassium phosphate buffer pH 7.6 @ 5° C.+100 mM potassium bromide and homogenizing with an Ultra-Turrax tissuemizer for 15 seconds at 90% output. The homogenate was centrifuged at 48,000×g for 10 minutes at 5° C. This last step was repeated two times, and the final pellet was resuspended in 10 ml of the same buffer and reserved on ice until initiating the binding assay.
The incubation was initiated by the addition of the membrane suspension, (about 15 μg membrane protein), and allowed to continue on ice for 30 min. Incubation was terminated by rapid filtration with a Brandel cell harvester through glass fiber Whatman GF/B filters pre-wet with the same potassium phosphate buffer assay buffer (at 4° C.). The filters were washed five times with 1 ml of buffer. Filter sections were transferred to minivials and 5 ml of Fisher Scientific ScintiSafe liquid scintillation cocktail was added to each vial. Vials were allowed to set for several hours prior to counting on a Beckman LS6000 liquid scintillation counter.

A further test relates to Male Sprague-Dawley rats. In words: Fear potentiated startle paradigm. In kind it is in vivo. The note with it: rat. Here is the method:
Male Sprague-Dawley rats weighing 325-400 g were purchased from Harlan Sprague-Dawley, Inc. (Cumberland, Ind.) and given a one week acclimation period before testing. Rats were individually housed with food and water ad libitum in an animal room on a 12-hour light/dark cycle with lights on between 6:00 A.M. and 6:00 P.M. […] Control rats were given the respective vehicle. The fear potentiated startle paradigm is conducted over three consecutive days. All three days begin with a 5-minute adaptation period before the trial starts. On day one (baseline startle) after the adaptation period, the animal receives 30 trials of 120 dB auditory noise. The mean startle amplitude (Vmax) is used to assign animals to groups with similar means before conditioning begins. Day two consists of conditioning the animals. Each animal receives 0.5 mA of shock for 500 msec preceded by a 5 second presentation of light which remains on for the duration of the shock. Ten presentations of the light and shock are administered. Day three is the testing trial where drug administration occurs prior to testing. Twenty-four hours after conditioning, startle testing sessions are conducted. Ten trials of acoustic startle (120 dB), non-light paired, are presented at the beginning of the session. This is followed by 20 random trials of the noise alone and 20 random trials of noise preceded by light. […] Data is presented as the difference between light+noise and noise-alone. Differences in startle response amplitudes were analyzed by JMP statistical software using a One-way Anova (analysis of variance, t-test). Group differences were considered to be significant at p<0.05. In the experiment shown below the compound of Example 16 was given i.p. 30 minutes prior to testing.

Each structure is given as a SMILES string. Where two headings read alike, the source gives them in different places. Marks after values point to notes of the source that are not given here.

T1 sequence (Q14416 19-872): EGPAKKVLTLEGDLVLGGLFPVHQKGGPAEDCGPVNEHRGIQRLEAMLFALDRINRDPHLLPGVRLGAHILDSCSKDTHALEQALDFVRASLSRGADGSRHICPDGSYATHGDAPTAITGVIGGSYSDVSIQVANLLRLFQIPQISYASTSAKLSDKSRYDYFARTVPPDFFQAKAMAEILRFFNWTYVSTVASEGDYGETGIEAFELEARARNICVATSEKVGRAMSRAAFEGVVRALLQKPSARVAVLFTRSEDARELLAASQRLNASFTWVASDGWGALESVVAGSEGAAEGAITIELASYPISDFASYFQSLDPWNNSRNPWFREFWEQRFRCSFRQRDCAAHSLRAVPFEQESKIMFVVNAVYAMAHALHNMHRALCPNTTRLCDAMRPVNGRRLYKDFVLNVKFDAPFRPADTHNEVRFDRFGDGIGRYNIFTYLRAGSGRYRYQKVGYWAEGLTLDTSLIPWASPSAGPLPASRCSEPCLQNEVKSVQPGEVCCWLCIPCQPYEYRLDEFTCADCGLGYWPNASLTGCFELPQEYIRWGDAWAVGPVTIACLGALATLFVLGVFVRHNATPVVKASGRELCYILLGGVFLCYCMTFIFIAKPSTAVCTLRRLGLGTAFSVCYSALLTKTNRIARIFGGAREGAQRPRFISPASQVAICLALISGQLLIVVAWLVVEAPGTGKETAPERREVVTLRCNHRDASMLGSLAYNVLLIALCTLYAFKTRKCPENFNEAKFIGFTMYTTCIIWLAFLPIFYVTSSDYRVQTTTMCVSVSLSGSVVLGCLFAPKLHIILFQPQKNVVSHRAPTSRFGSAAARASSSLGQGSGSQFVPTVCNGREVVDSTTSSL

Consider `COc1ccccc1Oc1ccc(N(Cc2cccnc2)S(=O)(=O)CC(F)(F)F)cc1` [Example 16, N-(4-(2-Methoxyphenoxy)phenyl)-N-(2,2,2-trifluoroethylsulfonyl)pyrid-3-ylmethylamine], for which the “Extrav. Ratio ± s.e.m.” value in test [1] (10 pg/kg i.v.) was 1.87 ± 0.07; in test [1] (100 pg/kg i.v.), 1.37 ± 0.07; in test [1] (1 ng/kg i.v.) it was 1.04 ± 0.05; in test [1] (100 ng/kg i.v.), 0.99 ± 0.004. The Emax at mGlu2 receptor [2] (8 nM Glutamate + 1 μM compound) worked out at 2.8 ± 1.9%; on mGlu2 receptor [2] (24 nM Glutamate + 1 μM compound), 0.1 ± 0.8%; on mGlu2 receptor [2] (80 nM Glutamate + 1 μM compound), 0.3 ± 1.1%; at mGlu2 receptor [2] (240 nM Glutamate + 1 μM compound) it was 17.4 ± 2.8%; at mGlu2 receptor [2] (800 nM Glutamate + 1 μM compound), 62.9 ± 0.1%; at mGlu2 receptor [2] (2.4 μM Glutamate + 1 μM compound), 92.5 ± 4.4%. Besides, the results for the Emax on mGlu2 receptor [2] (8 μM Glutamate + 1 μM compound) and on mGlu2 receptor [2] (24 μM Glutamate + 1 μM compound) were 98.4 ± 6.4% and 95.4 ± 2.4%, respectively. Moreover, the Emax at 1 µM at mGlu2 receptor [2] (1 μM compound, Buffer (no agonist), glutamate series 24 μM to 8 nM) stood at 1.6 ± 1%. For the same compound, the Ki at mGlu2 receptor [3] is above 100 µM. In addition, the “Difference in Startle Amplitude (Vmax) + S.E.” value was 108 + 41 with Male Sprague-Dawley rats (Exp. 1, 0.03 mg/kg i.p. 30 minutes prior to testing, light+noise minus noise-alone); 154 + 38 in the test with Male Sprague-Dawley rats (Exp. 1, 0.3 mg/kg i.p. 30 minutes prior to testing); 21 + 24* with Male Sprague-Dawley rats (Exp. 1, 3.0 mg/kg i.p. 30 minutes prior to testing); 120 + 87* in the test with Male Sprague-Dawley rats (Exp. 2, 1.0 mg/kg i.p. 30 minutes prior to testing); 148 + 86* in the test on Male Sprague-Dawley rats (Exp. 2, 3.0 mg/kg i.p. 30 minutes prior to testing); 105 + 91* in the test on Male Sprague-Dawley rats (Exp. 2, 10.0 mg/kg i.p. 30 minutes prior to testing).
